Broadly, the logP is a log measure of how a compound divides between an organic and an aqueous phase.

One data set in a line: physchem. To be noted: octanol/water.
Description: Octanol-water partition coefficient, log P of the compound
In turn, `N[C@@H](Cc1ccc(N(CCCl)CCCl)cc1)C(=O)O` had a logP of 0.4.

Compound `CN(C)c1nc(N(C)C)nc(N(C)C)n1` [ALTRETAMINE] came in with a logP of 1.7.

As for `NCC(=O)CCC(=O)O` [AMINOLEVULINIC ACID], the logP is -1.5.

`COc1cc(NS(C)(=O)=O)ccc1Nc1c2ccccc2nc2ccccc12` [AMSACRINE] yielded a logP of 3.8.

`O=C1CN2Cc3c(ccc(Cl)c3Cl)N=C2N1` [ANAGRELIDE]: the logP was determined as 2.4.

For the compound `C=C(c1ccc(C(=O)O)cc1)c1cc2c(cc1C)C(C)(C)CCC2(C)C` [BEXAROTENE], the logP stood at 6.9.

Turning to `CS(=O)(=O)OCCCCOS(C)(=O)=O` [BUSULFAN], the logP was -0.3.

`CCCCCOC(=O)Nc1nc(=O)n([C@@H]2O[C@H](C)[C@@H](O)[C@H]2O)cc1F` [CAPECITABINE] returned a logP of 0.4.

In turn, `Cc1ccc(-c2cc(C(F)(F)F)nn2-c2ccc(S(N)(=O)=O)cc2)cc1` [CELECOXIB] displayed a log partition coefficient (logP) of 3.9.

Turning to `O=C(O)CCCc1ccc(N(CCCl)CCCl)cc1` [CHLORAMBUCIL], the logP was found to be 3.9.

Take `Nc1nc(Cl)nc2c1ncn2[C@@H]1O[C@H](CO)[C@@H](O)[C@@H]1F` [CLOFARABINE]: the logP came to 0.

In the case of `O=P1(N(CCCl)CCCl)NCCCO1` (configuration not stated) [CYCLOPHOSPHAMIDE ANHYDROUS], the logP worked out at 0.8.

Compound `COc1cccc2c1C(=O)c1c(O)c3c(c(O)c1C2=O)C[C@@](O)(C(C)=O)C[C@@H]3O[C@H]1C[C@H](N)[C@H](O)[C@H](C)O1` [DAUNORUBICIN] had a logP of 0.1.

With `COc1cccc2c1C(=O)c1c(O)c3c(c(O)c1C2=O)C[C@@](O)(C(=O)CO)C[C@@H]3O[C@H]1C[C@H](N)[C@H](O)[C@H](C)O1` [DOXORUBICIN], the logP was -0.5.

`COc1cccc2c1C(=O)c1c(O)c3c(c(O)c1C2=O)C[C@@](O)(C(=O)CO)C[C@@H]3O[C@H]1C[C@H](N)[C@@H](O)[C@H](C)O1` [EPIRUBICIN] came in with a logP of -0.5.

On to `C[C@]12CC[C@@H]3c4ccc(OC(=O)N(CCCl)CCCl)cc4CC[C@H]3[C@@H]1CC[C@@H]2O` [ESTRAMUSTINE], for which the logP is 5.7.

As for `Nc1nc(F)nc2c1ncn2[C@@H]1O[C@H](CO)[C@@H](O)[C@@H]1O` [FLUDARABINE], the logP is -2.8.

`O=c1[nH]cc(F)c(=O)[nH]1` [FLUOROURACIL] yielded a logP of -0.8.

In turn, `Nc1ccn([C@@H]2O[C@H](CO)[C@@H](O)C2(F)F)c(=O)n1` [GEMCITABINE] showed a logP of -1.4.

For the compound `CC(=O)[C@]1(O)Cc2c(O)c3c(c(O)c2[C@@H](O[C@H]2C[C@H](N)[C@H](O)[C@H](C)O2)C1)C(=O)c1ccccc1C3=O` [IDARUBICIN], the logP was 0.2.

With `O=P1(NCCCl)OCCCN1CCCl` (configuration not stated) [IFOSFAMIDE], the logP was 0.8.

In turn, `O=NN(CCCl)C(=O)NC1CCCCC1` [LOMUSTINE] gave a lipophilicity (logP) of 3.

`Sc1ncnc2nc[nH]c12` [MERCAPTOPURINE ANHYDROUS]: the logP is -0.4.

The compound `CN(Cc1cnc2nc(N)nc(N)c2n1)c1ccc(C(=O)N[C@@H](CCC(=O)O)C(=O)O)cc1` [METHOTREXATE] returned a logP of -2.2.

Regarding `COC(=O)CCC(=O)CN` [METHYL AMINOLEVULINATE], the logP was -1.2.

As to `Clc1ccc(C(c2ccccc2Cl)C(Cl)Cl)cc1` (configuration not stated) [MITOTANE], the logP was determined as 6.

As for `O=C1c2c(O)ccc(O)c2C(=O)c2c(NCCNCCO)ccc(NCCNCCO)c21` [MITOXANTRONE], the log partition coefficient (logP) was -3.1.

Turning to `CC(=O)O[C@H]1C(=O)[C@@]2(C)[C@H]([C@H](OC(=O)c3ccccc3)[C@]3(O)C[C@H](OC(=O)[C@H](O)[C@@H](NC(=O)c4ccccc4)c4ccccc4)C(C)=C1C3(C)C)[C@]1(OC(C)=O)CO[C@@H]1C[C@@H]2O` [PACLITAXEL], the logP worked out at 3.

On to `OC[C@H]1O[C@@H](n2cnc3c2NC=NC[C@H]3O)C[C@@H]1O` [PENTOSTATIN], for which the logP is -1.1.

As to `O=C(CCBr)N1CCN(C(=O)CCBr)CC1` [PIPOBROMAN], the lipophilicity (logP) came out at 1.1.

Compound `Cc1nc2ccc(CN(C)c3ccc(C(=O)N[C@@H](CCC(=O)O)C(=O)O)s3)cc2c(=O)[nH]1` [RALTITREXED] yielded a log partition coefficient (logP) of -1.2.

Take `CN(N=O)C(=O)N[C@@H](C=O)[C@@H](O)[C@H](O)[C@H](O)CO` [STREPTOZOCIN]: the logP is -1.7.

Turning to `Nc1nc2nc[nH]c2c(=S)[nH]1` [THIOGUANINE], the logP is -0.7.

As for `CC[C@@]1(O)C(=O)OCc2c1cc1n(c2=O)Cc2cc3c(CN(C)C)c(O)ccc3nc2-1` [TOPOTECAN], the lipophilicity (logP) worked out at 0.8.

`CCCCC(=O)OCC(=O)[C@]1(O)Cc2c(O)c3c(c(O)c2[C@@H](O[C@H]2C[C@H](NC(=O)C(F)(F)F)[C@H](O)[C@H](C)O2)C1)C(=O)c1c(OC)cccc1C3=O` [VALRUBICIN] gave a logP of 2.2.

`CC[C@]1(O)C[C@@H]2CN(CCc3c([nH]c4ccccc34)[C@@](C(=O)OC)(c3cc4c(cc3OC)N(C)[C@H]3[C@@](O)(C(N)=O)[C@H](O)[C@]5(CC)C=CCN6CC[C@]43[C@@H]65)C2)C1` [VINDESINE] showed a logP of 2.9.

For the compound `CCC1=C[C@@H]2CN(C1)Cc1c([nH]c3ccccc13)[C@@](C(=O)OC)(c1cc3c(cc1OC)N(C)[C@H]1[C@@](O)(C(=O)OC)[C@H](OC(C)=O)[C@]4(CC)C=CCN5CC[C@]31[C@@H]54)C2` [VINORELBINE], the logP amounted to 4.

Assay in the next data set: not given
To be noted: octanol/water.
As to `CN(C)/N=N/c1[nH]cnc1C(N)=O` [DACARBAZINE], the logP is -1.6.

`Nc1nc2[nH]cc(CCc3ccc(C(=O)N[C@@H](CCC(=O)O)C(=O)O)cc3)c2c(=O)[nH]1` [PEMETREXED] returned a logP of -1.5.

Turning to `Cn1nnc2c(C(N)=O)ncn2c1=O` [TEMOZOLOMIDE], the logP was -2.8.

With `COc1cc([C@@H]2c3cc4c(cc3[C@@H](O[C@@H]3O[C@@H]5CO[C@@H](c6cccs6)O[C@H]5[C@H](O)[C@H]3O)[C@H]3COC(=O)[C@H]23)OCO4)cc(OC)c1O` [TENIPOSIDE], the logP stood at 1.5.

With `CC[C@]1(O)C[C@@H]2CN(CCc3c([nH]c4ccccc34)[C@@](C(=O)OC)(c3cc4c(cc3OC)N(C)[C@H]3[C@@](O)(C(=O)OC)[C@H](OC(C)=O)[C@]5(CC)C=CCN6CC[C@]43[C@@H]65)C2)C1` [VINBLASTINE], the logP was 3.9.

(Values after ChEMBL document CHEMBL1157036, “QSPR modeling of octanol/water partition coefficient of antineoplastic agents by balance of correlations” (Eur J Med Chem, 2010).)
